PMC8595612, “Hydrogen peroxide signaling via its transformation to a stereospecific alkyl hydroperoxide that escapes reductive inactivation” (Nature Communications, 2021)

B1: purified recombinant human protein kinase G 1α (PKG1α) (enzyme, UniProt Q13976 1-671, looked up)
chain: MSELEEDFAKILMLKEERIKELEKRLSEKEEEIQELKRKLHKCQSVLPVPSTHIGPRTTRAQGISAEPQTYRSFHDLRQAFRKFTKSERSKDLIKEAILDNDFMKNLELSQIQEIVDCMYPVEYGKDSCIIKEGDVGSLVYVMEDGKVEVTKEGVKLCTMGPGKVFGELAILYNCTRTATVKTLVNVKLWAIDRQCFQTIMMRTGLIKHTEYMEFLKSVPTFQSLPEEILSKLADVLEETHYENGEYIIRQGARGDTFFIISKGTVNVTREDSPSEDPVFLRTLGKGDWFGEKALQGEDVRTANVIAAEAVTCLVIDRDSFKHLIGGLDDVSNKAYEDAEAKAKYEAEAAFFANLKLSDFNIIDTLGVGGFGRVELVQLKSEESKTFAMKILKKRHIVDTRQQEHIRSEKQIMQGAHSDFIVRLYRTFKDSKYLYMLMEACLGGELWTILRDRGSFEDSTTRFYTACVVEAFAYLHSKGIIYRDLKPENLILDHRGYAKLVDFGFAKKIGFGKKTWTFCGTPEYVAPEIILNKGHDISADYWSLGILMYELLTGSPPFSGPDPMKTYNIILRGIDMIEFPKKIAKNAANLIKKLCRDNPSERLGNLKNGVKDIQKHKWFEGFNWEGLRKGTLTPPIIPSVASPTDTSNFDSFPEDNDEPPPDDNSGWDIDF
notes: human cGMP-dependent protein kinase 1, isoform alpha (PKG1α); also called PK1α; source: FreeStyle 293-F cells, transfected, purified (Ni-NTA, HiTrap Q), His-tag cleaved with TEV protease
B2: His-tagged wild type human Prx2 (peroxiredoxin 2) (enzyme, UniProt P32119 1-198, looked up)
chain: MASGNARIGKPAPDFKATAVVDGAFKEVKLSDYKGKYVVLFFYPLDFTFVCPTEIIAFSNRAEDFRKLGCEVLGVSVDSQFTHLAWINTPRKEGGLGPLNIPLLADVTRRLSEDYGVLKTDEGIAYRGLFIIDGKGVLRQITVNDLPVGRSVDEALRLVQAFQYTDEHGEVCPAGWKPGSDTIKPNVDDSKEYFSKHN
notes: human peroxiredoxin 2 (Prx2), wild type; also called His-tagged Prx2; pre-reduced His-tagged Prx2; source: E. coli BL21 (DE3), pET-28a, purified (Ni-NTA)
B3: untagged human Prx2 (His-tag cleaved with Factor Xa) (enzyme, UniProt P32119 1-198, looked up)
chain: B2 chain
notes: human peroxiredoxin 2 (Prx2), wild type; also called untagged Prx2; source: E. coli BL21 (DE3), pET-28a, purified (Ni-NTA), tag cleaved with Factor Xa

Columns and labels:
PKG1α = molecular target: T1, PKG1α (Homo sapiens, UniProt Q13976); assay: oxidative dimerization of purified PKG1α, non-reducing SDS-PAGE; format: biochemical
T1 construct: gene PRKG1; purified recombinant PKG1α, His-tag cleaved
T1 sequence (Q13976 2-671): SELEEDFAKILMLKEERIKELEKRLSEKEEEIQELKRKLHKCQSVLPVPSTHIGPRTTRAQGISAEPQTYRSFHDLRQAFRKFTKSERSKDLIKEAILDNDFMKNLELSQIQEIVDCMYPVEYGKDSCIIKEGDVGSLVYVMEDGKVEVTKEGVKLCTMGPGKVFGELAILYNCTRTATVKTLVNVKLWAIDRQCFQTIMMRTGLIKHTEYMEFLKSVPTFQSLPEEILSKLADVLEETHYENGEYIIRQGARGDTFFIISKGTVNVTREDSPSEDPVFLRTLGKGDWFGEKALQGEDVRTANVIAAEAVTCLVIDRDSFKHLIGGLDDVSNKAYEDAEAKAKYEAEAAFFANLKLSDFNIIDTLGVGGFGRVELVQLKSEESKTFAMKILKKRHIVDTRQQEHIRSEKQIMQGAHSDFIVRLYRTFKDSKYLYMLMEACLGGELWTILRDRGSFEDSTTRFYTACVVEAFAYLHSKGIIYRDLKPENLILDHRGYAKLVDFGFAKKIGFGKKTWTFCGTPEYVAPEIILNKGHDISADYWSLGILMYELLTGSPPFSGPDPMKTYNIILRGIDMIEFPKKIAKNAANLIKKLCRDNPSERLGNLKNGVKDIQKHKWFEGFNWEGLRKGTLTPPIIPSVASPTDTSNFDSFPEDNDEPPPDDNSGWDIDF

GPx4 = molecular target: T2, GPx4 (Rattus norvegicus, UniProt P36970); assay: coupled NADPH oxidation assay, apparent second-order rate constant; format: biochemical
T2 construct: GPx4 isolated from rat testis mitochondria
T2 sequence (P36970 28-197): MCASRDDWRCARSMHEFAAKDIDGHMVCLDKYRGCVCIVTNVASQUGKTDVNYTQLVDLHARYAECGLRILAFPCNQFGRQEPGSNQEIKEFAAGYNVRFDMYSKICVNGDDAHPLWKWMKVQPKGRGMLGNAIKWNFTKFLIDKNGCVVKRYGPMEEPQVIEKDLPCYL

Prx4 = molecular target: T3, Prx4 (Homo sapiens, UniProt Q13162); assay: redox blotting, estimated rate constant at […] °C; format: biochemical
T3 construct: gene PRDX4; His-tagged wild type human Prx4
T3 sequence (Q13162 38-271): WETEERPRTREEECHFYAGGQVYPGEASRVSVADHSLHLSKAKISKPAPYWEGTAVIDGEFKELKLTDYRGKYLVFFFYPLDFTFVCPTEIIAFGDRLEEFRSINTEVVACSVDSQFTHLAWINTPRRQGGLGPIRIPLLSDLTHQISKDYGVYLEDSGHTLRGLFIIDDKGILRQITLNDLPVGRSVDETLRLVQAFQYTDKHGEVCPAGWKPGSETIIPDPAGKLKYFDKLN

[1] = molecular target: the molecule itself; assay: non-reducing SDS-PAGE (disulfide-linked dimer); purified PKG1α (3.3 uM) with 200 uM cis-WOOH or H2O2, 5 min, 25 °C, 25 mM phosphate pH 7.0, 200 uM TCEP; stopped with 125 mM maleimide; non-reducing 4-12% SDS-PAGE, silver stain
[2] = molecular target: the molecule itself; assay: non-reducing SDS-PAGE (disulfide-linked dimer, redox blotting); purified pre-reduced Prx (20 uM) incubated with cis-WOOH, trans-WOOH (1-20 uM) or H2O2 (2.5-20 uM) for 10 s at 5 °C in 50 mM sodium phosphate pH 7.4 with 100 uM DTPA; NEM 50 mM; non-reducing 4-12% SDS-PAGE, silver stain; monomer and dimer bands

Molecule	coupled NADPH oxidation assay, apparent second-order rate constant (GPx4) [M⁻¹ s⁻¹]	redox blotting, estimated rate constant at 5 °C (Prx4)	binding result [2]	other results
O=C(O)[C@@H]1C[C@@]2(OO)c3ccccc3N[C@H]2N1 [cis-WOOH]	1e+06	~ 10^3 M^−1 s^−1		oxidative dimerization of purified PKG1α, non-reducing SDS-PAGE (PKG1α): cis-WOOH caused greater PKG1α dimerization than the same concentrations of H2O2
O=C(O)[C@@H]1C[C@]2(OO)c3ccccc3N[C@@H]2N1 [trans-WOOH]	1.6e+06	~ 10^3 M^−1 s^−1		
B1				binding result [1]: binds
B2			binds	
B3			binds	
